Test results published in patent US20240246918A1, “COMPOUNDS AND COMPOSITIONS AS EIF4E INHIBITORS AND THE USES THEREOF” (Ribometrix, Inc., priority 2022, published 2024).

Columns and labels:
human eIF4E protein = target: T1, human eIF4E protein (Homo sapiens, UniProt P06730); assay: Biochemical competitive binding assay (TR-FRET competition, EDA-m7GDP-ATTO-647N probe); conditions: read-out: hEIF4E TR-FRET IC50
T1 construct: purchased Novus NBP-45314
Description: The potencies of compounds binding to human eIF4E protein were measured using a 384-well time-resolved fluorescence resonance energy transfer (TR-FRET) competition assay. The assay was performed in assay buffer containing 50 mM HTEPES pH 7.5, 100 mM KCl, 0.02% Tween-20, and 0.1 mg/mL bovine serum albumin (BSA). The reaction volume was 10 μL and each reaction contained 4 nM recombinant 6×HIS-tagged human EIF4E protein (Novus, NBP-45314), 5 nM EDA-m7GDP-ATTO-647N (Jena Bioscience, NU-827-647N), 2.5 nM Europium conjugated Anti-6×HIS antibody (PerkinElmer, AD0402) and varying concentrations of compound. The final DMSO concentration was […].
Compounds were prepared using 11-point, 4-fold serial dilutions in DMSO and 100 nL of diluted compounds were transferred to 384-well assay-ready plates. Recombinant human EIF4E protein at 2× final concentration (8 nM) was pre-incubated with Eu-anti-6×HIS antibody at 2× final concentration (5 nM) for 5 minutes, then 5 μL of the protein solution was added to assay-ready plates. The protein/compound mix was incubated for 15 minutes, after which 5 μL of a solution containing EDA-m7GDP-ATTO-647N probe at 2× final concentration (10 nM) was added. After a subsequent 15-minute incubation, time-resolved fluorescence of assay plates was measured using a Clariostar Plus microplate reader (BMG Labtech) and TR-FRET values were calculated by taking a ratio of the 665 to 620 wavelength signals. After normalization to the average of DMSO control and maximum inhibition control wells, concentration-response data were plotted and standard 4-parameter curve fitting (PEI Signals) was utilized to determine IC50 values.

[1] = system: COLO 205 colorectal tumor cells; assay: Tumor cell viability inhibition assay (CellTiter-Glo 2.0, 72 hours); format: cell-based; conditions: COLO 205 cell viability
Description: The effect of compound treatment on COLO 205 tumor cell viability was assessed using cellular ATP quantification methods (Promega CellTiter-Glo® 2.0, G9241), as follows. Test compounds were prepared using 11-point, 4-fold serial dilutions in DMSO and 100 nL of diluted compounds were transferred to 384-well assay-ready plates. COLO 205 (ATCC, CCL-222) colorectal tumor cells were seeded to assay-ready plates in RPMI-1640 medium supplemented with 10% FBS at 1500 cells in a volume of 33.5 microliters per well. After 72 hours of compound treatment, cellular ATP was assessed by CellTiter-Glo® 2.0 Cell Viability Assay method, according to the manufacturer's instructions. Luminescence was measured using a Clariostar Plus microplate reader (BMG Labtech) or equivalent. After normalization to the average of DMSO control and maximum inhibition control wells, concentration-response data were plotted and standard 4-parameter curve fitting (PEI Signals) was utilized to determine IC50

T1 sequence (P06730 whole entry): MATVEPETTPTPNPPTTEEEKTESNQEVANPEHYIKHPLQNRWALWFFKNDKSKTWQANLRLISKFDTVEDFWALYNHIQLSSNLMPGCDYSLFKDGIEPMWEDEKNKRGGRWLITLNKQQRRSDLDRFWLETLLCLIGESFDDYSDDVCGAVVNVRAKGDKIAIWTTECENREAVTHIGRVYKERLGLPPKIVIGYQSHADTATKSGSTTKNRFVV

SMILES	IC50 (human eIF4E protein) [µM]	IC50 ([1]; Homo sapiens, COLO 205, 72 h) [µM]	IC50 [1] [µM]
COc1cc(CN(CC(F)F)C2CCc3nc(C)n(CCOc4ccc(Cl)cc4-c4cc(C)nc5c(C(=O)O)csc45)c(=O)c3C2)ccn1 (centres unmarked) [Compound 112, 7-[2-[2-[6-[2,2-bis(fluorenyl)ethyl-[(2-methoxy-4-pyridyl)methyl]amino]-2-methyl-4-oxidanylidene-5,6,7,8-tetrahydroquinazolin-3-yl]ethoxy]-5-chloranyl-phenyl]-5-methyl-thieno[3,2-b]pyridine-3-carboxylic acid]	< 0.1	5 to 20	
Cc1cc(-c2cc(Cl)ccc2OCCn2c(C)nc3c(c2=O)C[C@H](N2CC[C@@H](OC(F)(F)F)C2)CC3)c2scc(C(=O)O)c2n1 (single isomer, unassigned) [Compound 387]	< 0.1	< 5	
Cc1cc(-c2cc(Cl)ccc2OCCn2c(C)nc3c(c2=O)C[C@H](N2CCC(c4cn(C)cn4)CC2)CC3)c2scc(C(=O)O)c2n1 (single isomer, unassigned) [Compound 486]	< 0.1	> 20	
Cc1cc(-c2cc(Cl)ccc2OCCn2c(C)nc3c(c2=O)C[C@@H](N(C)[C@H]2CC[C@@](C)(O)CC2)CC3)c2scc(C(=O)O)c2n1 (single isomer, unassigned) [Compound 225]	< 0.1	> 20	
Cc1cc(-c2cc(Cl)ccc2OCCn2c(C)nc3c(c2=O)C[C@@H](N2CCC[C@]4(C2)CC4(F)F)CC32CC2)c2scc(C(=O)O)c2n1 (single isomer, unassigned) [Compound 583]	< 0.1	< 5	
Cc1cc(-c2cc(Cl)ccc2OCCn2c(C)nc3c(c2=O)C[C@H](N2CCC4(CC2)CC4(F)F)CC3)c2scc(C(=O)O)c2n1 (single isomer, unassigned) [Compound 390]	< 0.1	< 5	
Cc1cc(-c2cc(Cl)ccc2OCCn2c(C)nc3c(c2=O)C[C@H](N2CCC(c4ncco4)CC2)CC3)c2scc(C(=O)O)c2n1 (single isomer, unassigned) [Compound 460]	< 0.1	< 5	
Cc1cc(-c2cc(Cl)ccc2OCCn2c(C)nc3c(c2=O)C[C@H](N2CCC(c4ccc(F)cc4F)CC2)CC3)c2scc(C(=O)O)c2n1 (single isomer, unassigned) [Compound 418]	< 0.1	< 5	
Cc1cc(-c2cc(Cl)ccc2OCCn2c(C)nc3c(c2=O)CC(N2CCC(C(F)(F)F)CC2)CC3)c2scc(C(=O)NS(C)(=O)=O)c2n1 (single isomer, unassigned) [Compound 433]	< 0.1		< 5
Cc1cc(-c2cc(Cl)ccc2OCCn2c(C)nc3c(c2=O)C[C@@H](N2CCO[C@H](CC(F)(F)F)C2)CC3)c2scc(C(=O)O)c2n1 (single isomer, unassigned) [Compound 526]	< 0.1	< 5	
Cc1cc(-c2cc(Cl)ccc2OCCn2c(C)nc3c(c2=O)C[C@@H](N2CCC[C@@H](c4ccn(C)n4)C2)CC3)c2scc(C(=O)O)c2n1 (single isomer, unassigned) [Compound 446]	< 0.1	> 20	
Cc1cc(-c2cc(Cl)ccc2OCCn2c(C)nc3c(c2=O)C[C@@H](N2C[C@@H]4CC(F)(F)C[C@@H]4C2)CC3)c2scc(C(=O)NS(C)(=O)=O)c2n1 (relative stereo) [Compound 369]	< 0.1	< 5	
Cc1cc(-c2cc(Cl)ccc2OCCn2c(C)nc3c(c2=O)C[C@H](N2CC[C@@H](C(F)F)C2)CC3)c2scc(C(=O)O)c2n1 (single isomer, unassigned) [Compound 121]	< 0.1	< 5	
Cc1cc(-c2cc(Cl)ccc2OCCn2c(C)nc3c(c2=O)C[C@H](N2CCC4(CC2)NC(=O)NC4=O)CC3)c2scc(C(=O)O)c2n1 (single isomer, unassigned) [Compound 430]	< 0.1	< 5	
Cc1cc(-c2cc(Cl)ccc2C#CCn2c(C)nc3c(c2=O)CC(C)(N2CCCC4(C2)CC4(F)F)CC3)c2scc(C(=O)O)c2n1 (single isomer, unassigned) [Compound 608]	< 0.1		< 5
Cc1csc(C2CCN([C@@H]3CCc4nc(C)n(CCOc5ccc(Cl)cc5-c5cc(C)nc6c(C(=O)O)csc56)c(=O)c4C3)CC2)n1 (single isomer, unassigned) [Compound 429]	< 0.1	< 5	

SMILES	IC50 (human eIF4E protein) [µM]	IC50 ([1]; Homo sapiens, COLO 205, 72 h) [µM]	IC50 [1] [µM]
COC1CCN(C2(C)CCc3nc(C)n(CCOc4ccc(Cl)cc4-c4cc(C)nc5c(C(=O)O)csc45)c(=O)c3C2)CC1 (single isomer, unassigned) [Compound 496]	< 0.1		< 5
Cc1cc(-c2cc(Cl)ccc2OCCn2c(C)nc3c(c2=O)CC(N2CC4(CCCNC4)C2)CC3)c2scc(C(=O)O)c2n1 (single isomer, unassigned) [Compound 510]	< 0.1		> 20
Cc1cc(-c2cc(Cl)ccc2OCCn2c(C)nc3c(c2=O)C[C@H](N2CCCC[C@H]2C(F)(F)F)CC32CC2)c2scc(C(=O)O)c2n1 (single isomer, unassigned) [Compound 633]	< 0.1	5 to 20	
Cc1cc(-c2cc(Cl)ccc2OCCn2c(C)nc3c(c2=O)C[C@@H](N2CCC[C@H](C(F)(F)F)C2)CC3)c2scc(C(=O)O)c2n1 (single isomer, unassigned) [Compound 384]	< 0.1	< 5	
Cc1cc(-c2cc(Cl)ccc2C#CCn2c(C)nc3c(c2=O)CC(C)(N2CCCC4(C2)CC4(F)F)CC3)c2scc(C(=O)O)c2n1 (single isomer, unassigned) [Compound 612]	0.1 to 0.5		5 to 20
COC1CCN([C@H]2CCc3nc(C)n(CCOc4ccc(Cl)cc4-c4cc(C)nc5c(C(=O)O)csc45)c(=O)c3[C@H]2C)CC1 (stereo in doubt) [Compound 102, 7-(5-chloro-2-(2-(6-(4-methoxypiperidin-1-yl)-2,5-dimethyl-4-oxo-5,6,7,8-tetrahydroquinazolin-3(4H)-yl)ethoxy)phenyl)-5-methylthieno[3,2-b]pyridine-3-carboxylic acid]	< 0.1	5 to 20	
Cc1cc(-c2cc(Cl)ccc2OCCn2c(C)nc3c(c2=O)C[C@@H](N2CCC(c4nc5ccc(F)cc5s4)CC2)CC3)c2scc(C(=O)O)c2n1 (single isomer, unassigned) [Compound 594]	< 0.1	< 5	
Cc1nc2c(c(=O)n1CC#Cc1ccc(Cl)cc1-c1ccnc3c(C(=O)NS(C)(=O)=O)csc13)CC(N1CCC(OC(F)(F)F)CC1)CC2 (single isomer, unassigned) [Compound 592]	< 0.1	< 5	
Cc1cc(-c2cc(Cl)ccc2OCCn2c(C)nc3c(c2=O)C[C@@H](N2CCO[C@@H](COC(F)(F)F)C2)CC3)c2scc(C(=O)O)c2n1 (single isomer, unassigned) [Compound 479]	< 0.1	< 5	
CO[C@@H](C1CCN([C@H]2CCc3nc(C)n(CCOc4ccc(Cl)cc4-c4cc(C)nc5c(C(=O)O)csc45)c(=O)c3C2)CC1)C(F)(F)F (single isomer, unassigned) [Compound 562]	< 0.1	< 5	
COC1CCN(C2CCc3nc(C)n(CC#Cc4ccc(Cl)cc4-c4ccnc5c(C(=O)O)csc45)c(=O)c3C2)CC1 (single isomer, unassigned) [Compound 365]	< 0.1	< 5	
Cc1cc(-c2cc(Cl)ccc2OCCn2c(C)nc3c(c2=O)C[C@@H](N2CCC[C@@H](OC(F)(F)F)C2)CC3)c2scc(C(=O)O)c2n1 (single isomer, unassigned) [Compound 458]	< 0.1	< 5	
Cc1cc(-c2cc(Cl)ccc2OCCn2c(C)nc3c(c2=O)C[C@](C)(N2CCC[C@@]4(C2)CC4(F)F)CC3)c2scc(C(=O)O)c2n1 (single isomer, unassigned) [Compound 554]	0.1 to 0.5	5 to 20	
Cc1cc(-c2cc(Cl)ccc2OCCn2c(C)nc3c(c2=O)C[C@H](N2CCC4(CC2)CC(F)(F)CO4)CC3)c2scc(C(=O)O)c2n1 (single isomer, unassigned) [Compound 489]	< 0.1	< 5	
Cc1cc(-c2cc(Cl)ccc2OCCn2c(C)nc3c(c2=O)CC(N2CCC(c4cccs4)CC2)CC3)c2scc(C(=O)O)c2n1 (centres unmarked) [Compound 130]	< 0.1	< 5	
